What was measured:
[1] = system: IFN-gamma-secreting cells (PBMC); assay: Ex vivo ELISPOT, PBMC stimulated with artificial APC DYNAL beads + [MHC + peptide]; type: cell-based, human
[2] = system: IFN-gamma-secreting cells (PBMC); assay: Ex vivo ELISPOT, PBMC stimulated with plain (non-complexed) peptide; type: cell-based, human; details: PBMC 3 × 10^5 cells/well
Protocol: The term “ELISPOT” is used herein, for purposes of the specification and claims, to mean an adaptation of ELISA in which cells are placed over antibodies or antigens attached to a plastic surface. The antigen or antibody traps the cells' secreted products, which can then be detected by using an enzyme-coupled antibody that cleaves a preferably colorless substrate to make a localized colored spot.
In another embodiment, experiments were conducted with the E75 or Telomerase peptides+HLA beads in ex vivo ELISPOT assays run in the absence of stimulation (i.e. culture medium) or with plain or non-complexed E75 or Telomerase peptides. […] These responses have been reproduced in a number of assays using peripheral blood samples from prostate and breast cancer patients. The beads need not be made by DYNAL Biotech. Another biochemical manufacturer—such as BD Biosciences, may produce them.
In another embodiment, experiments were conducted with the E75 or Telomerase peptides+HLA beads in ex vivo ELISPOT assays run with negative control peptides.

| Substance | ELISPOT spots ([1]; 1 × 10^5 beads/well, PBMC 1 × 10^5 cells/well) [spots] | ELISPOT spots ([1]; 1 × 10^5 beads/well, PBMC 2 × 10^5 cells/well) [spots] | ELISPOT spots ([1]; 1 × 10^5 beads/well, PBMC 3 × 10^5 cells/well) [spots] | ELISPOT spots ([1]; 5 × 10^5 beads/well, PBMC 1 × 10^5 cells/well) [spots] | ELISPOT spots ([1]; 5 × 10^5 beads/well, PBMC 2 × 10^5 cells/well) [spots] | ELISPOT spots ([1]; 5 × 10^5 beads/well, PBMC 3 × 10^5 cells/well) [spots] | ELISPOT spots [2] [spots] |
| --- | --- | --- | --- | --- | --- | --- | --- |
| E37-ve: DYNAL beads + MHC + E37 negative control peptide (RIAWARTEL) [Peptide E37-ve] | 0 | 6 | 20 | 0 | 3 | 8 | – |
| NH2-RIAWARTEL-COOH (H-RIAWARTEL-OH) [Peptide E37, negative control peptide] | – | – | – | – | – | – | 1 |
